Experimental data published in patent publication US9102638B2, “Amidobenzothiazoles and process for the preparation thereof” (COUNCIL OF SCIENTIFIC & INDUSTRIAL RESEARCH, priority 2011, dated 2015).

Columns and labels:
Format in all cases: cell-based
MOLT-4 = assay: In vitro cytotoxicity, NCI screen: MOLT-4 (Leukemia); conditions: Homo sapiens; MOLT-4, Leukemia panel, NCI protocol; read-out: GI50 values (μM conc.)
Experimental: (§1) The in vitro anticancer activity studies for these amidobenzothiazoles were carried out at the National Cancer Institute, Maryland, USA.
(§2) The amidobenzothiazoles have been tested against sixty human tumor cell lines derived from nine cancer types (leukemia cancer cell line, non-small cell lung cancer cell line, colon cancer cell line, CNS cancer cell line, melanoma cancer cell line, ovarian cancer cell line, renal cancer cell line, prostate cancer cell line and breast cancer cell lines). For these compounds results are expressed in GI50 values of that particular cancer cell at micro molar (μM) concentration as per NCI protocol.

RPMI-8226 = assay: In vitro cytotoxicity, NCI screen: RPMI-8226 (Leukemia); conditions: Homo sapiens; RPMI-8226, Leukemia panel, NCI protocol; read-out: GI50 values (μM conc.)
Experimental: as §1, §2

A549/ATCC = assay: In vitro cytotoxicity, NCI screen: A549/ATCC (Non-small cell lung); conditions: Homo sapiens, Non-small cell lung panel, NCI protocol, read-out: GI50 values (μM conc.)
Experimental: as §1, §2

HOP-92 = assay: In vitro cytotoxicity, NCI screen: HOP-92 (Non-small cell lung); conditions: Homo sapiens; HOP-92, Non-small cell lung panel, NCI protocol; read-out: GI50 values (μM conc.)
Experimental: as §1, §2

NCI-H322M = assay: In vitro cytotoxicity, NCI screen: NCI-H322M (Non-small cell lung); conditions: Homo sapiens, Non-small cell lung panel, NCI protocol, read-out: GI50 values (μM conc.)
Experimental: as §1, §2

NCI-H460 = assay: In vitro cytotoxicity, NCI screen: NCI-H460 (Non-small cell lung); conditions: Homo sapiens; NCI-H460, Non-small cell lung panel, NCI protocol; read-out: GI50 values (μM conc.)
Experimental: as §1, §2

NCI-H522 = assay: In vitro cytotoxicity, NCI screen: NCI-H522 (Non-small cell lung); conditions: Homo sapiens; NCI-H522, Non-small cell lung panel, NCI protocol; read-out: GI50 values (μM conc.)
Experimental: as §1, §2

HCT-116 = assay: In vitro cytotoxicity, NCI screen: HCT-116 (Colon); conditions: Homo sapiens, read-out: GI50 values (μM conc.)
Experimental: as §1, §2

SW-620 = assay: In vitro cytotoxicity, NCI screen: SW-620 (Colon); conditions: Homo sapiens; SW-620, Colon panel, NCI protocol; read-out: GI50 values (μM conc.)
Experimental: as §1, §2

SF-539 = assay: In vitro cytotoxicity, NCI screen: SF-539 (CNS); conditions: Homo sapiens, read-out: GI50 values (μM conc.)
Experimental: as §1, §2

LOX IMVI = assay: In vitro cytotoxicity, NCI screen: LOX IMVI (Melanoma); conditions: Homo sapiens, Melanoma panel, NCI protocol, read-out: GI50 values (μM conc.)
Experimental: as §1, §2

M14 = assay: In vitro cytotoxicity, NCI screen: M14 (Melanoma); conditions: Homo sapiens; M14, Melanoma panel, NCI protocol; read-out: GI50 values (μM conc.)
Experimental: as §1, §2

MDA-MB-435 = assay: In vitro cytotoxicity, NCI screen: MDA-MB-435 (Melanoma); conditions: Homo sapiens; MDA-MB-435, Melanoma panel, NCI protocol; read-out: GI50 values (μM conc.)
Experimental: as §1, §2

SK-MEL-2 = assay: In vitro cytotoxicity, NCI screen: SK-MEL-2 (Melanoma); conditions: Homo sapiens; SK-MEL-2, Melanoma panel, NCI protocol; read-out: GI50 values (μM conc.)
Experimental: as §1, §2

SK-MEL-28 = assay: In vitro cytotoxicity, NCI screen: SK-MEL-28 (Melanoma); conditions: Homo sapiens; SK-MEL-28, Melanoma panel, NCI protocol; read-out: GI50 values (μM conc.)
Experimental: as §1, §2

UACC-257 = assay: In vitro cytotoxicity, NCI screen: UACC-257 (Melanoma); conditions: Homo sapiens; UACC-257, Melanoma panel, NCI protocol; read-out: GI50 values (μM conc.)
Experimental: as §1, §2

786-0 = assay: In vitro cytotoxicity, NCI screen: 786-0 (Renal); conditions: Homo sapiens; 786-0, Renal panel, NCI protocol; read-out: GI50 values (μM conc.)
Experimental: as §1, §2

A498 = assay: In vitro cytotoxicity, NCI screen: A498 (Renal); conditions: Homo sapiens; A498, Renal panel, NCI protocol; read-out: GI50 values (μM conc.)
Experimental: as §1, §2

CAKI-1 = assay: In vitro cytotoxicity, NCI screen: CAKI-1 (Renal); conditions: Homo sapiens; CAKI-1, Renal panel, NCI protocol; read-out: GI50 values (μM conc.)
Experimental: as §1, §2

RXF 393 = assay: In vitro cytotoxicity, NCI screen: RXF 393 (Renal); conditions: Homo sapiens; RXF 393, Renal panel, NCI protocol; read-out: GI50 values (μM conc.)
Experimental: as §1, §2

SN12C = assay: In vitro cytotoxicity, NCI screen: SN12C (Renal); conditions: Homo sapiens, Renal panel, NCI protocol, read-out: GI50 values (μM conc.)
Experimental: as §1, §2

TK-10 = assay: In vitro cytotoxicity, NCI screen: TK-10 (Renal); conditions: Homo sapiens; TK-10, Renal panel, NCI protocol; read-out: GI50 values (μM conc.)
Experimental: as §1, §2

UO-31 = assay: In vitro cytotoxicity, NCI screen: UO-31 (Renal); conditions: Homo sapiens; UO-31, Renal panel, NCI protocol; read-out: GI50 values (μM conc.)
Experimental: as §1, §2

PC-3 = assay: In vitro cytotoxicity, NCI screen: PC-3 (Prostate); conditions: Homo sapiens; PC-3, Prostate panel, NCI protocol; read-out: GI50 values (μM conc.)
Experimental: as §1, §2

DU-145 = assay: In vitro cytotoxicity, NCI screen: DU-145 (Prostate); conditions: Homo sapiens, read-out: GI50 values (μM conc.)
Experimental: as §1, §2

MCF7 = assay: In vitro cytotoxicity, NCI screen: MCF7 (Breast); conditions: Homo sapiens; MCF7, Breast panel, NCI protocol; read-out: GI50 values (μM conc.)
Experimental: as §1, §2

MDA-MB-231/ATCC = assay: In vitro cytotoxicity, NCI screen: MDA-MB-231/ATCC (Breast); conditions: Homo sapiens, Breast panel, NCI protocol, read-out: GI50 values (μM conc.)
Experimental: as §1, §2

HS 578T = assay: In vitro cytotoxicity, NCI screen: HS 578T (Breast); conditions: Homo sapiens, read-out: GI50 values (μM conc.)
Experimental: as §1, §2

CNS cancer cell lines = assay: In vitro activity against CNS cancer cell lines (panel range); conditions: Homo sapiens, read-out: GI50 values, range over the listed compounds and the panel
Experimental: as §1, §2

[1] = test system: prostate cancer cell lines; assay: In vitro activity against prostate cancer cell lines (panel range); conditions: Homo sapiens, read-out: GI50 values, range over the listed compounds and the panel
Experimental: as §1, §2

COc1ccc(/C=C/C(=O)c2cc(OC)c(OC)c(OC)c2)cc1OCC(=O)Nc1nc2ccc(OC(F)(F)F)cc2s1 [Compound 9j, N1-(6-(trifluoromethoxy)-1,3-benzothiazol-2-yl)-2-{2-methoxy-5-[(E)-3-oxo-3-(3,4,5-trimethoxyphenyl)-1-propenyl]phenoxy}acetamide] gave a GI50 (MOLT-4) of 2.89 µM, a GI50 (RPMI-8226) of 2.02 µM and a GI50 (A549/ATCC) of 1.99 µM. For the same molecule, the GI50 (HOP-92) was 2.14 µM, the GI50 (NCI-H322M) was 2.77 µM and the GI50 (NCI-H460) was 2.43 µM. The GI50 (NCI-H522) was 0.67 µM, the GI50 (HCT-116) was 1.43 µM and the GI50 (SW-620) was 1.08 µM. For the same molecule, the GI50 (SF-539) was 0.29 µM, the GI50 (LOX IMVI) was 0.47 µM and the GI50 (M14) was 1.72 µM. The GI50 (MDA-MB-435) was 0.3 µM, the GI50 (SK-MEL-2) was 4.97 µM and the GI50 (SK-MEL-28) was 3.31 µM. It also gave a GI50 (UACC-257) of 8.08 µM, a GI50 (786-0) of 2.26 µM and a GI50 (A498) of 7.4 µM. It also gave a GI50 (CAKI-1) of 2.2 µM, a GI50 (RXF 393) of 1.58 µM and a GI50 (SN12C) of 1.74 µM. The GI50 (TK-10) was 2.08 µM, the GI50 (UO-31) was 1.61 µM and the GI50 (PC-3) was 3.14 µM. For the same molecule, the GI50 (DU-145) was 1.56 µM, the GI50 (MCF7) was 1.32 µM and the GI50 (MDA-MB-231/ATCC) was 2.01 µM. The GI50 (HS 578T) was 3.08 µM, the GI50 (CNS cancer cell lines) was 45 to 18800 nM and the GI50 [1] was 180 to 22900 nM.
